In patent publication US8536307B2, “Anticalins” (Pieris AG, priority 1997, dated 2013):

Experiments:
[1] = biological target: anticalin FluB, mutein of Pieris brassicae bilin-binding protein (Bbp): Asn34Gln, Ser35His, Val36Trp, Glu37Asp, Asn58Arg, His60Arg, Ile69His, Glu70Lys, Leu88Val (Pieris brassicae, UniProt P09464, E52D/E85K/F142H/H75R/I84H/K102S/K110R/K131R/K150M/L103V/N112G/N16D/N36Q/N49Q/N73R/Q140W/S50H/V108R/V51W/Y105R/Y129R); details: fluorescence titration, excitation 280 nm, emission 340 nm, 1 μM anticalin, PBS with 1 mM EDTA, pH 7.4, 25° C.
UniProt P09464, sequence (P09464 other isoform, or with tags, fused parts or gaps with the stated changes): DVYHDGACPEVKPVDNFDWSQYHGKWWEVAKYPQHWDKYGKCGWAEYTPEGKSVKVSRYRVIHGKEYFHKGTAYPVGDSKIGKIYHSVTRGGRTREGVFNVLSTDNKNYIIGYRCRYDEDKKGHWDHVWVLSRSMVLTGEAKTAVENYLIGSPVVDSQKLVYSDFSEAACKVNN

[2] = biological target: T1, anticalin FluA, mutein of Pieris brassicae bilin-binding protein (Bbp): Asn34Ser, Ser35Pro, Val36Asn, Glu37Gly, Asn58Arg, His60Asp, Ile69Met, Leu88Arg, Tyr90Val (Pieris brassicae, UniProt P09464, E111K/E52G/F142H/H75D/I84M/K102S/K110R/K131R/K150M/L103R/N112T/N16D/N36Q/N49S/N73R/Q140W/S50P/V108Y/V51N/Y105V/Y129S); details: fluorescence titration, excitation 280 nm, emission 340 nm, 1 μM anticalin, PBS with 1 mM EDTA, pH 7.4, 25° C.
T1 sequence (P09464 other isoform, or with tags, fused parts or gaps with the stated changes): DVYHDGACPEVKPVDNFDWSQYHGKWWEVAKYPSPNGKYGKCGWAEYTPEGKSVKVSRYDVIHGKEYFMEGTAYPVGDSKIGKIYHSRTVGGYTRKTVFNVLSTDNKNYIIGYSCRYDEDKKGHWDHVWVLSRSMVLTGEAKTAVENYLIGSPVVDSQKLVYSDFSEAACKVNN

[3] = biological target: recombinant Pieris brassicae bilin-binding protein (Bbp), parent (Pieris brassicae, UniProt P09464, K102S/K150M/N16D/N36Q); details: control experiment corresponding to that with FluA, excitation 490 nm, emission 512 nm
recombinant Pieris brassicae bilin-binding protein (Bbp), parent, sequence (P09464 other isoform, or with tags, fused parts or gaps K102S/K150M/N16D/N36Q): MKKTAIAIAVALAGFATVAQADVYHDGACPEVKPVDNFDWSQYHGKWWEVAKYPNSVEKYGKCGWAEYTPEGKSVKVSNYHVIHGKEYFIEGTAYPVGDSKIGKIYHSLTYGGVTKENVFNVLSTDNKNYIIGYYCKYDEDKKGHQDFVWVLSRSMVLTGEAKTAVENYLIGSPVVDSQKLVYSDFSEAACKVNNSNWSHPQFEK

[4] = biological target: T1, anticalin FluA, mutein of Pieris brassicae bilin-binding protein (Bbp): Asn34Ser, Ser35Pro, Val36Asn, Glu37Gly, Asn58Arg, His60Asp, Ile69Met, Leu88Arg, Tyr90Val; details: fluorescein 1 μM, excitation 490 nm, emission 512 nm, PBS with 1 mM EDTA, pH 7.4, 25° C.

SMILES | Dissociation constant (Kd) [1] | Dissociation constant (Kd) [2] | Quenching of the fluorescence of fluorescein [3] | Quenching of the fluorescence intensity of fluorescein in the complex [4]
Nc1ccc2c(c1)C(=O)OC21c2ccc(O)cc2Oc2cc(O)ccc21 [4-Aminofluorescein, 4-amino-fluorescein] | 2.84 ± 0.3 µM | 0.224 ± 0.006 µM |  | 
O=C(O)CCCC(=O)Nc1ccc2c(c1)C(=O)OC21c2ccc(O)cc2Oc2cc(O)ccc21 [4-Glutarylamidofluorescein, 4-glutarylamido-fluorescein] | 4.70 ± 0.51 µM | 0.601 ± 0.016 µM |  | 
O=C1OC2(c3ccc(O)cc3Oc3cc(O)ccc32)c2ccccc21 [Fluorescein, fluorescein] | 5.73 ± 0.86 µM | 0.118 ± 0.014 µM | no comparable fluorescence quenching was found | 99.7±0.3%
